Results taken from patent US20110178143A1, “THERAPEUTIC COMPOUNDS” (ALLERGAN, INC., priority 2007, published 2011).
Where two headings read alike, the source gives them in different places.

Tests used:
alpha2B receptor = biological target: T1, alpha2B receptor (Homo sapiens, UniProt P18089); assay: Receptor Selection and Amplification Technology (RSAT) assay, alpha 2B; format: cell-based; conditions: for Emax: read-out: Alpha 2B intrinsic activity (IA), in parentheses
T1 construct: expressed in transfected cells; host or cells: NIH-3T3 cells
T1 sequence (P18089 1-450): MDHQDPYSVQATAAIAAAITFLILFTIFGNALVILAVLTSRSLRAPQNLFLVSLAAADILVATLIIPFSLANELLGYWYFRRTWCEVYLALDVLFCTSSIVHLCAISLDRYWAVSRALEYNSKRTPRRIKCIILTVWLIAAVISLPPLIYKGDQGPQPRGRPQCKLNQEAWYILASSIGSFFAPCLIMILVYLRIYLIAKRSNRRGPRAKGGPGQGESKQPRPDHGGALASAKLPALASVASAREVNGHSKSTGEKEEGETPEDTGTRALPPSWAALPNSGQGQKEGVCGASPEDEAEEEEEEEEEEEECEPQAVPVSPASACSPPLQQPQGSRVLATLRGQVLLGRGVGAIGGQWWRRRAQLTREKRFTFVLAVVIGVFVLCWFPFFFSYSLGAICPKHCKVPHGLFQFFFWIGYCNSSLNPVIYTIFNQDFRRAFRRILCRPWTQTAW
Method: (§1) Receptor Selection and Amplification Technology (RSAT) Assay
(§2) The RSAT assay measures a receptor-mediated loss of contact inhibition that results in selective proliferation of receptor-containing cells in a mixed population of confluent cells. The increase in cell number is assessed with an appropriate transfected marker gene such as β-galactosidase, the activity of which can be easily measured in a 96-well format. Receptors that activate the G protein, Gq, elicit this response. Alpha2 receptors, which normally couple to Gi, activate the RSAT response when coexpressed with a hybrid Gq protein that has a Gi receptor recognition domain, called Gq/i5.
(§3) NIH-3T3 cells are plated at a density of 2×10^6 cells in 15 cm dishes and maintained in Dulbecco's modified Eagle's medium supplemented with 10% calf serum. One day later, cells are cotransfected by calcium phosphate precipitation with mammalian expression plasmids encoding p-SV-β-galactosidase (5-10 μg), receptor (1-2 μg) and G protein (1-2 μg). 40 μg salmon sperm DNA may also be included in the transfection mixture. Fresh media is added on the following day and 1-2 days later, cells are harvested and frozen in 50 assay aliquots. Cells are thawed and 100 μl added to 100 μl aliquots of various concentrations of drugs in triplicate in 96-well dishes. Incubations continue 72-96 hr at 37° C. After washing with phosphate-buffered saline, β-galactosidase enzyme activity is determined by adding 200 μl of the chromogenic substrate (consisting of 3.5 mM o-nitrophenyl-β-D-galactopyranoside and 0.5% nonidet P-40 in phosphate buffered saline), incubating overnight at 30° C. and measuring optical density at 420 nm. The absorbance is a measure of enzyme activity, which depends on cell number and reflects a receptor-mediated cell proliferation. The efficacy or intrinsic activity is calculated as a ratio of the maximal effect of the drug to the maximal effect of a standard full agonist for each receptor subtype. Brimonidine, also called UK14304, the chemical structure of which is shown below, is used as the standard agonist for the alpha2A, alpha2B and alpha2c receptors. The EC50 is the concentration at which the drug effect is half of its maximal effect.
(§4) EC50 values are nanomolar. ND stands for “not determinable” at concentrations less than 10 micromolar. IA stands for “intrinsic activity.”

alpha2C receptor = biological target: T2, alpha2C receptor (Homo sapiens, UniProt P18825); assay: Receptor Selection and Amplification Technology (RSAT) assay, alpha 2C; format: cell-based; conditions: for Emax: RSAT, maximal effect relative to standard full agonist brimonidine (UK14304), read-out: Alpha 2C intrinsic activity (IA), in parentheses
T2 construct: expressed in transfected cells; host or cells: NIH-3T3 cells
T2 sequence (P18825 1-462): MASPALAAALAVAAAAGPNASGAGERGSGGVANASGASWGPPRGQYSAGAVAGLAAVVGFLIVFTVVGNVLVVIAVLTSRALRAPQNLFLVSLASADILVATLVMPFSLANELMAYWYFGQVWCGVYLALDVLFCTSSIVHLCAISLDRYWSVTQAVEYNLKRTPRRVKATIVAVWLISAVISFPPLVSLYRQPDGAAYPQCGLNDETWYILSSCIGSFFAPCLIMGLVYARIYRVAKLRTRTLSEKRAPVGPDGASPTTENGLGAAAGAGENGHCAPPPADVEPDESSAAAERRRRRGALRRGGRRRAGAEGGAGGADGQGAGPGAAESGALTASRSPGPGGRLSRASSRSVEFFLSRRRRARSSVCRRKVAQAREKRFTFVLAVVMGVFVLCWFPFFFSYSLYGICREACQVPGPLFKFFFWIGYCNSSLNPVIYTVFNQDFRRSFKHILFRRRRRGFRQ
Method: as §1, §2, §3, §4

alpha2A receptor = biological target: T3, alpha2A receptor (Homo sapiens, UniProt P08913); assay: cell-based; conditions: for Emax: read-out: Alpha 2A intrinsic activity (IA), in parentheses
T3 sequence (P08913 1-465): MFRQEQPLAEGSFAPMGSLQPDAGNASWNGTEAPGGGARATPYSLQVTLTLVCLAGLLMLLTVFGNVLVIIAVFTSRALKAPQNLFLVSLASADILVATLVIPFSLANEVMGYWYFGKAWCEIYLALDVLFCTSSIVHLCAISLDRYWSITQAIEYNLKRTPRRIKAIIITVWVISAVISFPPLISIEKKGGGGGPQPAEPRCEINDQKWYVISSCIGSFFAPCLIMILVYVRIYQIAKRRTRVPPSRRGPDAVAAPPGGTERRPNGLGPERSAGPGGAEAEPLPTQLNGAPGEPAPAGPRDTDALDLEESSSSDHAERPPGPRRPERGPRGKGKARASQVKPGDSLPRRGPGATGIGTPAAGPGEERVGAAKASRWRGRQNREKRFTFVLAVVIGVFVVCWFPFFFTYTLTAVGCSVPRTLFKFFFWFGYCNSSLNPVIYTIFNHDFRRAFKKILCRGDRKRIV
Method: NIH-3T3 cells are plated at a density of 2×10^6 cells in 15 cm dishes and maintained in Dulbecco's modified Eagle's medium supplemented with 10% calf serum. One day later, cells are cotransfected by calcium phosphate precipitation with mammalian expression plasmids encoding p-SV-β-galactosidase (5-10 μg), receptor (1-2 μg) and G protein (1-2 μg). 40 μg salmon sperm DNA may also be included in the transfection mixture. Fresh media is added on the following day and 1-2 days later, cells are harvested and frozen in 50 assay aliquots. Cells are thawed and 100 μl added to 100 μl aliquots of various concentrations of drugs in triplicate in 96-well dishes. Incubations continue 72-96 hr at 37° C. After washing with phosphate-buffered saline, β-galactosidase enzyme activity is determined by adding 200 μl of the chromogenic substrate (consisting of 3.5 mM o-nitrophenyl-β-D-galactopyranoside and 0.5% nonidet P-40 in phosphate buffered saline), incubating overnight at 30° C. and measuring optical density at 420 nm. The absorbance is a measure of enzyme activity, which depends on cell number and reflects a receptor-mediated cell proliferation. The efficacy or intrinsic activity is calculated as a ratio of the maximal effect of the drug to the maximal effect of a standard full agonist for each receptor subtype. […] The EC50 is the concentration at which the drug effect is half of its maximal effect.

[1] = RSAT in transfected NIH-3T3 cells, nd = not determinable at concentrations less than 10 micromolar, read-out: Alpha 2C EC50
[2] = RSAT in transfected NIH-3T3 cells, nd = not determinable at concentrations less than 10 micromolar, read-out: Alpha 2B EC50

Row | SMILES | EC50 (alpha2B receptor) [nM] | Emax (alpha2B receptor) [%] | EC50 (alpha2C receptor; [1]) [nM] | Emax (alpha2C receptor) [%] | Emax (alpha2A receptor) [%] | EC50 (alpha2C receptor) [nM] | EC50 (alpha2B receptor; [2]) [nM] | EC50 (alpha2A receptor) [nM]
1 | Cc1cccc2c1CCC2NC1=NCCN1 (stereo not shown) | 5.7 | 98 | 429 | 38 | 20 |  |  | 
2 | Cc1cccc2c1CC[C@H]2NC1=NCCN1 | 33.4 | 106 |  | 11 | 11 |  |  | 
3 | Cc1cccc2c1CC[C@@H]2NC1=NCCN1 | 4.5 | 125 |  | 62 | 16 | 82 |  | 
4 | Brc1cccc2c1CCC2NC1=NCCN1 (stereo not shown) | 12.2 | 71 |  | 12 | 7 |  |  | 
5 | c1ccc2c(c1)CCC2NC1=NCCN1 (stereo not shown) | 17 | 93 | 207 | 46 | 3 |  |  | 
6 | c1ccc2c(c1)CC[C@@H]2NC1=NCCN1 | 43 | 82 |  | 11 | 4 |  |  | 
7 | Cc1ccc2c(c1)C(NC1=NCCN1)CC2 (stereo not shown) |  | 34 |  | 7 | 7 |  | 473 | 
8 | c1ccc2c(c1)CC(NC1=NCCN1)C2 |  | 36 |  | 5 | 5 |  | 61 | 
9 | Cc1cccc2c1CC[C@@H]2NC1=NCCS1 |  | 138 | 23 | 96 | 57 |  | 3.4 | 143
10 | CC1CC(NC2=NCCS2)c2ccccc21 (stereo not shown) | 10 | 99 |  | 41 | 25 | 86 |  | 180
11 | CC1CC(NC2=NCCO2)c2ccccc21 (stereo not shown) |  | 112 | 19.8 | 50 | 25 |  | 2.2 | 7
12 | c1ccc2c(c1)CCC2NC1=NCCS1 (stereo not shown) | 7.5 | 107 |  | 102 | 14 | 54 |  | 
